The values that follow come from ChEMBL document CHEMBL4118093, “Identification of a Hit Series of Antileishmanial Compounds through the Use of Mixture-Based Libraries” (ACS Med Chem Lett, 2017).

SMILES strings stand for the structures.

Data set [1] relates to Leishmania donovani. Put plainly: Antileishmanial activity against Leishmania donovani axenic amastigotes at 5 uM after 72 hrs by Celltiter reagent based assay relative to control. It is filed as functional.
Data set [2] can be described thus: Selectivity index, ratio of IC50 for mouse J774 cells to IC50 for Leishmania donovani axenic amastigotes infected in mouse J774 cells. It is filed as toxicity, cell-based. The following applies: read-out: Ratio IC50.
Data set [3] relates to Leishmania donovani. Put plainly: Antileishmanial activity against Leishmania donovani axenic amastigotes infected in mouse J774 cells measured after 72 hrs by Draq5 staining based high content screening assay. It is filed as functional, organism-based. As to conditions: J774, 72 h.
The test system of another data set is J774. Put plainly: Cytotoxicity against mouse J774 cells.
The test system of data set [4] is Leishmania donovani. Put plainly: Antileishmanial activity against Leishmania donovani axenic amastigotes at 2.5 uM after 72 hrs by Celltiter reagent based assay relative to control. It is filed as functional.

The term inhibition denotes the drop in the measured response relative to a control, in per cent. By IC50 is commonly meant the concentration that inhibits the measured activity by half. Low values mean greater potency in that assay, high ones weaker potency in that assay. `CCCCCCCN1C(=N)N(CCCC[C@H]2CNC(=N)N2CCc2cccc(C(F)(F)F)c2)C[C@@H]1CC1CCCCC1`: in the data set with Leishmania donovani [1], the inhibition at 5 µM turned out to be 6%. Further, the selectivity ratio in data set [2] is less than 10. The IC50 was greater than 5 µM with Leishmania donovani [3] and 50 µM in the data set with J774. For the same compound, 2.5 µM produced 0% inhibition in the data set with Leishmania donovani [4].
`CCCC[C@H]1CN(CCCC[C@H]2CNC(=N)N2CCCCC2CCCCC2)C(=N)N1CCCCC1CCCCC1` yielded an inhibition at 5 µM with Leishmania donovani [1] of 99%. Besides, the selectivity ratio in data set [2] was less than 3. Also, the IC50 in the data set on Leishmania donovani [3] is greater than 5 µM; in the data set on J774, 15 µM. For the same compound, in the data set with Leishmania donovani [4], testing at 2.5 µM gave an inhibition of 71%.
Taken in the same sequence, the figures for `N=C1NC[C@H](CCCCN2C[C@H](CC3CCCCC3)N(CCCCC3CCCCC3)C2=N)N1CCC12CC3CC(CC(C3)C1)C2` were 28%, less than 5, greater than 5 µM, 23 µM and 0%.
Taken in the same sequence, the figures for `N=C1NC[C@H](CCCCN2C[C@@H](Cc3ccc4ccccc4c3)N(CCc3ccc(-c4ccccc4)cc3)C2=N)N1CCC12CC3CC(CC(C3)C1)C2` were 0%, 25, 1.7 µM, 41 µM and 0%.
Taken in the same sequence, the figures for `CCCCCCCN1C(=N)N(CCCC[C@H]2CNC(=N)N2CCC23CC4CC(CC(C4)C2)C3)C[C@H]1Cc1ccc2ccccc2c1` were 0%, 57, 0.6 µM, 36 µM and 0%.
The compound `N=C1NC[C@H](CCCCN2C[C@@H](Cc3ccc4ccccc4c3)N(CCc3ccc(-c4ccccc4)cc3)C2=N)N1CCCCC1CCCCC1` yielded an inhibition at 5 µM in the data set on Leishmania donovani [1] of 95%. For the same compound, the selectivity ratio in data set [2] was less than 7. Moreover, the IC50 was greater than 5 µM with Leishmania donovani [3] and 34 µM in the data set with J774. Further, testing at 2.5 µM in the data set on Leishmania donovani [4] gave an inhibition of 15%.
Taken in the same sequence, the figures for `N=C1NC[C@H](CCCCN2C[C@@H](Cc3ccc4ccccc4c3)N(CCCCC3CCCCC3)C2=N)N1CCCCC1CCCCC1` were 0%, 56, 0.9 µM, 50 µM and 0%.
On the same counts, the results for `CCCCCCCN1C(=N)N(CCCC[C@H]2CNC(=N)N2CCc2cccc(C(F)(F)F)c2)C[C@H]1Cc1ccc2ccccc2c1` are 100%, 14, 3.5 µM, 50 µM and 37%.
Taken in the same sequence, the figures for `N=C1NC[C@H](CCCCN2C[C@H](CC3CCCCC3)N(CCc3ccc(-c4ccccc4)cc3)C2=N)N1CCc1cccc(C(F)(F)F)c1` were 97%, less than 9, greater than 5 µM, 46 µM and 35%.
On to `CCCCCCCN1C(=N)N(CCCC[C@H]2CNC(=N)N2CCC23CC4CC(CC(C4)C2)C3)C[C@@H]1CC1CCCCC1`, for which, in the data set with Leishmania donovani [1], testing at 5 µM gave an inhibition of 85%. Besides, the selectivity ratio in data set [2] came out at 11. Besides, the figures for the IC50 with Leishmania donovani [3] and in the data set on J774 were 2.5 µM and 26 µM, respectively. The inhibition at 2.5 µM with Leishmania donovani [4] turned out to be 14%.
Turning to `N=C1NC[C@H](CCCCN2C[C@H](CC3CCCCC3)N(CCCCC3CCCCC3)C2=N)N1CCc1cccc(C(F)(F)F)c1`, the inhibition at 5 µM in the data set on Leishmania donovani [1] amounted to 94%. The selectivity ratio in data set [2] worked out at 14. Moreover, the IC50 in the data set with Leishmania donovani [3] was 1.3 µM; in the data set on J774, 26 µM. The compound also had an inhibition at 2.5 µM in the data set on Leishmania donovani [4] of 0%.
Taken in the same sequence, the figures for `N=C1NC[C@H](CCCCN2C[C@@H](Cc3ccc4ccccc4c3)N(CCc3ccc(-c4ccccc4)cc3)C2=N)N1CCc1cccc(C(F)(F)F)c1` were 0%, 39, 1.3 µM, 50 µM and 0%.
On the same counts, the results for `CCCC[C@H]1CN(CCCC[C@H]2CNC(=N)N2CCc2cccc(C(F)(F)F)c2)C(=N)N1CCc1ccc(-c2ccccc2)cc1` are 100%, 88 to 89, 0.3 µM, 28 µM and 47%.
Compound `CCCC[C@H]1CN(CCCC[C@H]2CNC(=N)N2CCCCC2CCCCC2)C(=N)N1CCc1ccc(-c2ccccc2)cc1` had an inhibition at 5 µM with Leishmania donovani [1] of 98%. Further, the selectivity ratio in data set [2] came to 2. For the same compound, the results for the IC50 with Leishmania donovani [3] and in the data set with J774 were 5 µM and 12 µM, respectively. Testing at 2.5 µM in the data set with Leishmania donovani [4] gave an inhibition of 78%.
On the same counts, the results for `N=C1NC[C@H](CCCCN2C[C@H](CC3CCCCC3)N(CCc3ccc(-c4ccccc4)cc3)C2=N)N1CCC12CC3CC(CC(C3)C1)C2` are 57%, 20, 0.9 µM, 17 µM and 14%.
The compound `CCCC[C@H]1CN(CCCC[C@H]2CNC(=N)N2CCc2cccc(C(F)(F)F)c2)C(=N)N1CCCCC1CCCCC1` registered an inhibition at 5 µM with Leishmania donovani [1] of 43%. Also, in data set [2], the selectivity ratio worked out at 10. The IC50 in the data set on Leishmania donovani [3] came out at 5 µM; with J774, 50 µM. The compound also had an inhibition at 2.5 µM in the data set on Leishmania donovani [4] of 0%.
